Source: article PMC6792352, “Limited Chemical Structural Diversity Found to Modulate Thyroid Hormone Receptor in the Tox21 Chemical Library” (Environmental Health Perspectives, 2019)
Counter-ions that a name gives are not always drawn.

test: in vitro; conditions: rat, gh3-tre-luc cells, AC50 (uM) modified / 1000

Row | SMILES | CC50 at 24 h [µM]
1 | COCC(O)CO (stereo not shown) [1-O-Methylglycerol] | > 100
2 | CCC1C(C)=NN=C(c2ccc(OC)c(OC)c2)c2cc(OC)c(OC)cc21 (stereo not shown) [Tofisopam] | > 50
3 | CCCCCCCC[Si](OCC)(OCC)OCC [Triethoxyoctylsilane] | > 90
4 | C1CSCCS1 [1,4-Dithiane] | > 90
5 | O=C1c2ccccc2C(=O)c2cc(S(=O)(=O)O)ccc21 [Sodium 9,10-dioxo-9,10-dihydroanthracene-2-sulfonate] | > 90
6 | c1ccc2ccccc2c1 [Naphthalene] | > 90
7 | O=C(O)/C=C\C(=O)Nc1ccc(S(=O)(=O)Nc2nccs2)cc1 [Maleylsulfathiazole] | > 50
8 | CC(=O)OCCC(C)C [3-Methylbutyl acetate] | > 90
9 | O=C1CCCc2c1cc1ccc3cccc4ccc2c1c34 [9,10-Dihydrobenzo[a]pyren-7(8H)-one] | > 90
10 | CC1(C)O[C@@H]2[C@@H](CO[C@@]3(COS(N)(=O)=O)OC(C)(C)O[C@@H]23)O1 [Topiramate] | > 90
11 | COc1ccc2c(c1)OC(C)(C)C(c1ccccc1)C2c1ccc(OCCN2CCCC2)cc1 (stereo not shown) [Ormeloxifene] | 6.42
12 | CCCCCCC(C)OC(=O)CCCCC(=O)OC(C)CCCCCC (stereo not shown) [Diisooctyl adipate] | > 90
13 | CSc1ccc2c(c1)N(CCC1CCCCN1C)c1ccccc1S2 (stereo not shown) [Thioridazine hydrochloride] | 7.04
14 | CC(C)CCCCCCOC(=O)C1CCCCC1C(=O)OCCCCCCC(C)C (stereo not shown) [Diisononyl cyclohexane-1,2-dicarboxylate] | > 90
15 | C=CC(=O)OCCC#N [2-Cyanoethyl prop-2-enoate] | > 90
16 | O=C=NCC1CCCC(CN=C=O)C1 (stereo not shown) [1,3-Bis(isocyanatomethyl)cyclohexane] | > 90
17 | C[C@H](CS)C(=O)N1CCC[C@H]1C(=O)O [Captopril] | > 50
18 | O=C(C1CCCCC1)N1CC(=O)N2CCc3ccccc3C2C1 (stereo not shown) [Praziquantel] | > 90
19 | CCCCCCCCCCC1CO1 (stereo not shown) [1,2-Epoxydodecane] | > 90
20 | Nc1ccc2cc(S(=O)(=O)O)cc(O)c2c1N=Nc1ccccc1C(F)(F)F [Acid Red 337] | 89.3
21 | NC1CCC(CC2CCC(N)CC2)CC1 (stereo not shown) [4,4'-Diaminodicyclohexylmethane] | > 90
22 | CC(C(=O)O)c1ccc2c(c1)CC(=O)c1ccccc1S2 (stereo not shown) [Zaltoprofen] | > 50
23 | CN=C=O [Methyl isocyanate] | > 90
24 | O=C(Cl)C(Cl)(Cl)Cl [Trichloroacetyl chloride] | > 90
25 | Cc1ccc(C(=O)c2cc(O)c(O)c([N+](=O)[O-])c2)cc1 [Tolcapone] | 72.4
26 | COc1cc2ncnc(Nc3ccc(F)c(Cl)c3)c2cc1OCCCN1CCOCC1 [Gefitinib] | 8.92
27 | CCCCCCCCCCCCI [1-Iodododecane] | > 90

Row | SMILES | CC50 at 24 h [µM]
28 | C[N+](C)(C)CC(O)CCl (stereo not shown) [Dextrosil] | > 90
29 | CCCCCc1ccc(Cl)cc1 | > 90
30 | Nc1ncnc2nc[nH]c12 [Adenine] | > 90
31 | Cc1cnc2c(C(=O)O)c(Cl)ccc2c1 [Quinmerac] | > 90
32 | CCCCCCCCCCCCO [1-Dodecanol] | > 90
33 | CC(=O)CCC(=O)O [4-Oxopentanoic acid] | > 100
34 | CCCCCOC(=O)c1ccccc1C(=O)OCCCCC [Dipentyl phthalate] | > 90
35 | CCCCOC(=O)COC(=O)c1ccccc1C(=O)OCCCC [Butylphthalyl butylglycolate] | > 90
36 | O=C(O)[C@@H](S)[C@H](S)C(=O)O [(2R,3R)-2,3-Dimercaptosuccinic acid] | 22.8
37 | OC[C@@H](O)[C@@H](O)CO [Erythritol] | > 90
38 | CC(C)/N=c1\cc2n(-c3ccc(Cl)cc3)c3ccccc3nc-2cc1Nc1ccc(Cl)cc1 [Clofazimine] | 5.75
39 | COc1ccc(CCNC[C@H](O)c2ccc(O)cc2)cc1OC [Denopamine] | > 50
40 | CC(C)COC(=O)c1ccc(O)cc1 [Isobutylparaben] | > 90
41 | CCOC(=O)O[C@]1(C(=O)OCCl)CC[C@H]2[C@@H]3CCC4=CC(=O)C=C[C@]4(C)[C@H]3[C@@H](O)C[C@@]21C [Loteprednol etabonate] | > 50
42 | CCCCCCCCCCCCN1CCCC1=O [1-Dodecyl-2-pyrrolidinone] | 49.6
43 | Oc1ccc(Cl)cc1C1CCCC1 [4-Chloro-2-cyclopentylphenol] | 55.3
44 | COc1nc(N)nc2nc[nH]c12 [O6-Methylguanine] | > 90
45 | C/C(=N\Cc1ccccc1)c1ccccc1O [Oletimol] | > 50
46 | COCC(C)O (stereo not shown) [1-Methoxy-2-propanol] | > 90
47 | CC(C)c1ccc(C=O)cc1 [4-Isopropylbenzaldehyde] | > 90
48 | Nc1ccc(C(=O)O)cc1 [4-Aminobenzoic acid] | > 90
49 | C=C[C@](C)(O)CC[C@@H]1[C@@]2(C)CCCC(C)(C)[C@@H]2CC[C@@]1(C)O [Sclareol] | 29.3
50 | CC(C)C(OC(=O)c1ccccc1)C(C)(C)COC(=O)c1ccccc1 (stereo not shown) [2,2,4-Trimethylpentane-1,3-diyl dibenzoate] | 76
51 | CCOC(=O)C1=C(C)NC(C)=C(C(=O)OC)C1c1cccc([N+](=O)[O-])c1 (stereo not shown) [Nitrendipine] | > 50
52 | CCCC(=O)OCc1ccccc1 [Benzyl butyrate] | > 90
53 | CCCCCCOC(=O)CCCCC [Hexyl hexanoate] | > 90
54 | COc1nn(CSP(=S)(OC)OC)c(=O)s1 [Methidathion] | > 90

Row | SMILES | CC50 at 24 h [µM]
55 | C#C[C@]1(O)CC[C@H]2[C@@H]3[C@H](C)CC4=C(CCC(=O)C4)[C@H]3CC[C@@]21C [Tibolone] | 51.8
56 | Cc1ccc(N)c([N+](=O)[O-])c1 [4-Methyl-2-nitroaniline] | > 90
57 | C[C@@H]1O[C@@H]1P(=O)(O)O [Fosfomycin calcium] | > 50
58 | Cc1ccccc1CCO [2-Methylphenethyl alcohol] | > 90
59 | CCN1C(=O)c2ccccc2C1Nc1ccc(OCCN2CCCCC2)cc1 (stereo not shown) [Etomidoline] | > 50
60 | C[C@]12CCC(=O)C=C1CC[C@@H]1[C@@H]2[C@@H](O)C[C@@]2(C)[C@H]1CC[C@]2(O)C(=O)COC(=O)CCC(=O)O [Hydrocortisone 21-hemisuccinate sodium salt] | > 50
61 | c1cc2ccc3ccc4ccc5cccc6c(c1)c2c3c4c56 [Benzo(g,h,i)perylene] | > 4
62 | Cc1nc(C)nc(N2C[C@@H](C)N(c3ccnc([C@@H](C)O)n3)[C@@H](C)C2)n1 [CP-642931] | > 50
63 | C[N+]1(C)CCN(CC(O)(c2ccccc2)C2CCCCC2)CC1 (stereo not shown) [Hexocyclium] | > 50
64 | CC(C)=CCCC(C)=CC#N [Citralva] | > 90
65 | NS(=O)(=O)c1cc2c(cc1Cl)NC(C(Cl)Cl)NS2(=O)=O (stereo not shown) [Trichlormethiazide] | > 20
66 | NNC(=O)c1cccc(C(=O)NN)c1 [1,3-Benzenedicarboxylic acid, dihydrazide] | > 90
67 | CC(C)COC(=O)c1ccccc1 [Isobutyl benzoate] | > 90
68 | O=[N+]([O-])c1ccc2ncccc2c1 [6-Nitroquinoline] | > 90
69 | CCOC(=O)c1cnc2c(cnn2CC)c1NN=C(C)C [Etazolate hydrochloride] | > 50
70 | CCCC[N+](=O)[O-] [1-Nitrobutane] | > 90
71 | O=C(O)C[C@H](NC(=O)OCc1ccccc1)C(=O)O [N-[(Benzyloxy)carbonyl]-L-aspartic acid] | > 90
72 | CC[C@H]1OC(=O)[C@H](C)C(=O)[C@H](C)[C@@H](O[C@@H]2O[C@H](C)C[C@H](N(C)C)[C@H]2O)[C@](C)(OC)C[C@@H](C)C(=O)[C@H](C)[C@H]2N(CCCCn3cnc(-c4cccnc4)c3)C(=O)O[C@]12C [Telithromycin] | > 50
73 | O=[N+]([O-])c1ccc2ccc3cccc4ccc1c2c34 [1-Nitropyrene] | > 90
74 | C=C(C)[C@@H]1CCC2=CCC[C@@H](C)[C@]2(C)C1 [Valencene] | > 90
75 | CCCc1ccc(OC)cc1 [4-Propylanisole] | > 90
76 | C[N+]1(CCCCC[N+]2(C)CCCC2)CCCC1 [Pentolinium ditartrate] | > 50
77 | NCC[C@H](O)C(=O)N[C@@H]1C[C@H](N)[C@@H](O[C@H]2O[C@H](CN)[C@@H](O)[C@H](O)[C@H]2O)[C@H](O)[C@H]1O[C@H]1O[C@H](CO)[C@@H](O)[C@H](N)[C@H]1O [Amikacin] | > 50
78 | O=C(O)C1=NN(c2ccc(S(=O)(=O)O)cc2)C(=O)C1 [Sodium 5-oxo-1-(4-sulfophenyl)-4,5-dihydro-1H-pyrazole-3-carboxylate] | > 90
79 | CCCCCCc1ccc(-c2ccc(C#N)cc2)cc1 [4-Hexyl-4'-cyanobiphenyl] | > 90

same assay, conditions: rat, gh3-tre-luc cells, AC50 (uM) modified / 1000, Tox21_110001=Tox21_110815; viability, 1 nM T3 present, 24 h

Row | SMILES | CC50 at 24 h [µM]
80 | COc1ccc2c(c1OC)C(=O)O[C@H]2[C@@H]1c2cc3c(cc2CCN1C)OCO3 [(1S,9R)-beta-Hydrastine] | > 50

same assay, conditions: rat, gh3-tre-luc cells, AC50 (uM) modified / 1000, Tox21_110001=Tox21_111859; viability, 1 nM T3 present, 24 h

Row | SMILES | CC50 at 24 h [µM]
81 | O=C1CCCCC1CN1CCCCC1 (stereo not shown) [Pimeclone] | > 50

same assay, conditions: rat, gh3-tre-luc cells, AC50 (uM) modified / 1000, Tox21_110001=Tox21_201498; viability, 1 nM T3 present, 24 h

Row | SMILES | CC50 at 24 h [µM]
82 | COc1ccc(N)cc1 [4-Methoxyaniline hydrochloride] | > 90

same assay, conditions: rat, gh3-tre-luc cells, AC50 (uM) modified / 1000, Tox21_110001=Tox21_301172; viability, 1 nM T3 present, 24 h

Row | SMILES | CC50 at 24 h [µM]
83 | CCOP(=O)(OCC)OP(=O)(OCC)OCC [Tetraethyl pyrophosphate] | > 90

same assay, conditions: rat, gh3-tre-luc cells, AC50 (uM) modified / 1000, Tox21_110001=Tox21_301263; viability, 1 nM T3 present, 24 h

Row | SMILES | CC50 at 24 h [µM]
84 | CCCCN(CCCCO)N=O [Butyl-N-(4-hydroxybutyl)nitrosamine] | > 90

same assay, conditions: rat, gh3-tre-luc cells, AC50 (uM) modified / 1000, Tox21_110001=Tox21_302560; viability, 1 nM T3 present, 24 h

Row | SMILES | CC50 at 24 h [µM]
85 | Nc1ccccc1C(=O)Oc1ccc2ccccc2c1 [Naphthalen-2-yl 2-aminobenzoate] | > 90
